Paper PMC7655034, “Identification of a dual TAOK1 and MAP4K5 inhibitor using a structure-based virtual screening approach” (Journal of Enzyme Inhibition and Medicinal Chemistry, 2020)
Values joined by “and” are separate entries in the source; they are usually repeats but may differ in a detail not shown here. Equal values may be shown once.

Legend:
TAOK1 = target: T1, TAOK1 (Homo sapiens, UniProt Q7L7X3); experiment: Enzymatic assay (LanthaScreen, Thermo Fisher); format: biochemical; conditions: for inhibition at 10 µM / Inhibition percentage at 10 μM TAOK1: 10 μM compound, average of two replicates; for inhibition at 10 µM: read-out: Inhibition percentage at 10 μM TAOK1
T1 construct: purchased Thermo Fisher Scientific (outsourced assay service)
T1 sequence (Q7L7X3 1-1001): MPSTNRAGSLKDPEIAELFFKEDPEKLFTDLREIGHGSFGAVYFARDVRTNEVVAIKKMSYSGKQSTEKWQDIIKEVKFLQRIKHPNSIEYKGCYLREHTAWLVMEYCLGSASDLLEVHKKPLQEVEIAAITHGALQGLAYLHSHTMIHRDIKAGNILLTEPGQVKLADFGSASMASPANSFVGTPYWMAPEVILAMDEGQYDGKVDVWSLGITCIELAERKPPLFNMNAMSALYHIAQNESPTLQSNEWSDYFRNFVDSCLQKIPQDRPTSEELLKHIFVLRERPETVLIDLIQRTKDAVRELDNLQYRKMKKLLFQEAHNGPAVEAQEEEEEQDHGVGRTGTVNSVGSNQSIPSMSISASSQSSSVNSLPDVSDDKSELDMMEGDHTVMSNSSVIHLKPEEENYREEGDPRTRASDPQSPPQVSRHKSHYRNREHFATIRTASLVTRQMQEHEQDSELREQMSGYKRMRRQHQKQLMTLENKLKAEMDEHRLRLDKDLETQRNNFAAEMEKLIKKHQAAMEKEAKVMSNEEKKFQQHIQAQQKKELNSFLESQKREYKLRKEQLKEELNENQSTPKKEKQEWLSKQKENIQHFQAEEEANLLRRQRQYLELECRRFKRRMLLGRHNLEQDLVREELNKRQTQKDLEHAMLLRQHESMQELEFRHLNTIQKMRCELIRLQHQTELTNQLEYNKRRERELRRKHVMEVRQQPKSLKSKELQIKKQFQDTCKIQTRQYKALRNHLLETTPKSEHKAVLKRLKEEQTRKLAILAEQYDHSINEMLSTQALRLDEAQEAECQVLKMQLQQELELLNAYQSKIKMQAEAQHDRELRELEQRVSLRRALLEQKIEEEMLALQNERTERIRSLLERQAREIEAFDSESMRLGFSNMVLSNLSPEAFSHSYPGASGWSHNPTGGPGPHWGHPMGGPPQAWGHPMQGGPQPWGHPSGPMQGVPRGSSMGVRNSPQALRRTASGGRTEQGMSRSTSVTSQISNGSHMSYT
Experimental: (§1) The enzymatic assay was outsourced to Thermo Fisher Scientific to conduct. They used LanthaScreen and Z´-LYTE technology, which were both robust homogeneous assays method by Fluorescence Resonance Energy Transfer (FRET) to evaluate TAOK1 and MAP4K5, respectively. Briefly, the test compound was co-incubated with fluorescein-labelled substrate, kinase, ATP, kinase buffer and development reagent for reaction. After 1 h, the stop solution (EDTA) was added and then the results were determined by a fluorescence reader. The data was shown as an average of two replicates.

MAP4K5 = target: T2, MAP4K5 (Homo sapiens, UniProt Q9Y4K4); experiment: Enzymatic assay (Z'-LYTE, Thermo Fisher); format: biochemical; conditions: for inhibition at 10 µM / Inhibition percentage at 10 μM MAP4K5: 10 μM compound, average of two replicates; for inhibition at 10 µM: read-out: Inhibition percentage at 10 μM MAP4K5
T2 construct: purchased Thermo Fisher Scientific (outsourced assay service)
Experimental: as §1

[1] = tested on: panel of around 70 kinases; experiment: Kinase selectivity (Thermo Fisher SelectScreen kinome panel); format: biochemical; conditions: concentration selected based on IC50 values
Experimental: The kinase selectivity of selected compounds was performed by Thermo Fisher Select Screen service. A kinome screen occurred across a panel of roughly 70 kinases. Conditions and analyses are available online (www.thermofisher.com/selectscreen).
To evaluate the selectivity of the inhibitors identified in this study, a biochemical assay was conducted by ThermoFisher Scientific. A panel of around 70 kinases from different kinase families as well as all available members of the STE kinase family, was selected for testing (Supplemental Figure 3). The concentration of the compound was selected based on their IC50 values. […] The target kinase in this study, MAP4K5 and TAOK1, belong to the STE20 kinase family. Of the kinases inhibited by compounds 1 and 2, we found eight and three of the kinases to belong to the STE20 kinase family. Together, this implies that the inhibitors identified in this study are selective towards the STE20 kinase family.

HCT116, HT29 and H1299 = experiment: Single-concentration SRB and MTT assays in cancer cell lines; format: cell-based, Human; conditions: for Effect in cell-based experiments: HCT116, HT-29, H1299
Experimental: (§2) Human colorectal cancer cell lines HCT116, HT-29 and human lung cancer cell line, H1299 were purchased from the Bioresource Collection and Research Centre (BCRC, Taiwan) and were incubated either in McCoy’s 5 A medium or RPMI-1640 medium (Thermo Fisher Scientific, Walthma, MA, USA), supplemented with 10% foetal bovine serum and 1% Penicillin-Streptomycin-Amphotericin B Solution (Biological Industries, Kibbutz Beit-Haemek, Israel) at 37 °C in a humidified atmosphere with 5% CO2.
(§3) Cell viability was determined by MTT (3–(4,5-dimethylthiazol-2-yl)-2,5-diphenyltetrazolium bromide, Sigma Chemical Co, St. Louis, MO, USA) assay. Cells were seeded in 96-well plates at a density of 5,000 cells/well in a regular culture medium overnight. Then, the cells were treated with various concentrations of indicated compounds for 72 h. After that, the medium was removed, 100 µL MTT solution (0.5 mg/ml in phosphate-buffered saline, PBS) was added to each well and then incubated for 1 h at 37 °C. The insoluble formazan dyes, representing the active mitochondrial dehydrogenase in live cells, were dissolved in the dimethyl sulfoxide (DMSO). The absorbance was analysed by an ELISA reader (Beckman Coulter, Brea, CA, USA) at 550 nm.
(§4) SRB (sulforhodamine B, Sigma Chemical Co, St Louis, MO, USA) assay was used to analyse cell proliferation. Cells were seeded in 96-well plates at a density of 5000 cells/well and then treated with various concentrations of indicated compounds for 48 h. Cells were fixed with 10% TCA (trichloroacetic acid), washed with PBS, and stained with 100 µL SRB solution (0.4% SRB in 1% acetic acid) for 15 min. Then, cells were washed three times with 1% acetic acid and dissolved in the trizma base solution (10 mM). The absorbance was measured by an ELISA reader (Beckman Coulter Diagnostics, Brea, CA, USA) at […].

H1299 cells [2] = experiment: SRB cell proliferation assay; format: cell-based; conditions: Homo sapiens, NCI-H1299, 48 h, read-out: GI50 (50% of growth inhibition)
Experimental: as §2, §4

HCT116 cells [3] = experiment: SRB cell proliferation assay; format: cell-based; conditions: Homo sapiens, HCT-116, 48 h, read-out: GI50 (50% of growth inhibition)
Experimental: as §2, §4

HT29 cells [4] = experiment: SRB cell proliferation assay; format: cell-based; conditions: Homo sapiens, HT-29, 48 h, read-out: GI50 (50% of growth inhibition)
Experimental: as §2, §4

HT-29 cells = experiment: Cell cycle distribution by flow cytometry; format: cell-based, Human
Experimental: The cell cycle distribution was measured by flow cytometry. HT-29 cells were treated with or without the indicated concentrations of compound 1 for 24 or 48 h or 72 h. The cells were harvested by trypsinizing and fixed in ice-cold 75% ethanol for 1 h at −20 °C. The samples were washed with PBS and resuspended in the proper amount of DNA extraction buffer, containing 0.2 M Na2HPO4 and 0.1 M citric acid pH 7.8, for 30 min. Then the cells were washed again with PBS and stained with propidium iodide solution containing 100 µg/ml RNaseA, 80 µg/ml propidium iodide and 0.1% Triton X-100, which were all in PBS. Finally, cell cycle distribution was determined and performed by utilising BD Accuri™ and C6 Software (BD Biosciences, Franklin Lakes, NJ, USA).

H1299 cells [5] = experiment: MTT cell viability assay; format: cell-based; conditions: Homo sapiens, NCI-H1299, 72 h, read-out: IC50 (cell survival)
Experimental: as §2, §3

HCT116 cells [6] = experiment: MTT cell viability assay; format: cell-based; conditions: Homo sapiens, HCT-116, 72 h, read-out: IC50 (cell survival)
Experimental: as §2, §3

HT29 cells [7] = experiment: MTT cell viability assay; format: cell-based; conditions: Homo sapiens, HT-29, 72 h, read-out: IC50 (cell survival)
Experimental: as §2, §3

T2 sequence (Q9Y4K4 whole entry): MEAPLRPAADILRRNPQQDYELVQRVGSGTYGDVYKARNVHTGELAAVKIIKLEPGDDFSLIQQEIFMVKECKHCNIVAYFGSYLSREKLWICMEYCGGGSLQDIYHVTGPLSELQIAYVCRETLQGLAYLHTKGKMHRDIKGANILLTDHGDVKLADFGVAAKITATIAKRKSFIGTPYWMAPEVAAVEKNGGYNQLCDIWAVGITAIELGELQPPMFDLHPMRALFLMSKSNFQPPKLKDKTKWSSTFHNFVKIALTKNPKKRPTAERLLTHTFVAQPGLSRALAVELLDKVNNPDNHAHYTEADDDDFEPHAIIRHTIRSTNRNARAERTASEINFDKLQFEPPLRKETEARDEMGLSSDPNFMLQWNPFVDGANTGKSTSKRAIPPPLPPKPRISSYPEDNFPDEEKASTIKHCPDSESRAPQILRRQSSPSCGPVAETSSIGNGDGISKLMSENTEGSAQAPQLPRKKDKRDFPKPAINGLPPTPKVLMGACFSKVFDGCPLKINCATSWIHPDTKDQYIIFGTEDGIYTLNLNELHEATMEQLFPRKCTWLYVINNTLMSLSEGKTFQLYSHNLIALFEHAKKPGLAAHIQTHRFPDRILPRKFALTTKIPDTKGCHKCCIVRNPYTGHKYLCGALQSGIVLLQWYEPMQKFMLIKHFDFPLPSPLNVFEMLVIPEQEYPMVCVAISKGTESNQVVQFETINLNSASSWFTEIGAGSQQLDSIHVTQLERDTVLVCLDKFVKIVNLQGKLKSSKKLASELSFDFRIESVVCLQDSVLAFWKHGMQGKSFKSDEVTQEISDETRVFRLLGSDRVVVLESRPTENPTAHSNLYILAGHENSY

| Structure (SMILES) | inhibition at 10 µM (TAOK1) [%] | inhibition at 10 µM (MAP4K5) [%] | Number of kinases inhibited in panel [1] | IC50 (TAOK1) [µM] | Inhibition percentage at 10 μM TAOK1 (TAOK1) | IC50 (MAP4K5) [µM] | Inhibition percentage at 10 μM MAP4K5 (MAP4K5) | other results |
| --- | --- | --- | --- | --- | --- | --- | --- | --- |
| Nc1nnc(N)c2nc(-c3ccccc3)c(-c3ccccc3)nc12 [Compound 4] | 19 | 54 | – | – | – | – | – | – |
| Nc1nc(N)c2nc(-c3ccc(O)cc3)c(-c3ccc(O)cc3)nc2n1 [Compound 2] | – | – | five | 1.83 | ≥ 50% and 84% | 2 | ≥ 50% and 77% | Number of inhibited kinases belonging to the STE20 kinase family [1]: three; Effect in cell-based experiments (HCT116, HT29 and H1299): limited effects |
| Nc1ncnc2nc(-c3ccc(C(=O)c4ccc([N+](=O)[O-])cc4)cc3)[nH]c12 [Compound 3] | ≥ 50 | ≥ 50 | 23 kinases | 5.3 | 63% | 6.28 | 51% | Effect in cell-based experiments (HCT116, HT29 and H1299): limited effects |
| CCN1CCN(CCNc2nccc(-c3c(-c4cccc(O)c4)nc4sccn34)n2)S1(=O)=O [Compound 1] | – | – | nine | 4.15 | ≥ 50% and 74% | 2.25 | ≥ 50% and 84% | Number of inhibited kinases belonging to the STE20 kinase family [1]: eight; GI50 (H1299 cells [2]): 19.2 µM; GI50 (HCT116 cells [3]): 3.9 µM; GI50 (HT29 cells [4]): 6.8 µM; Cancer cell proliferation (SRB) at 10 µM and survival (MTT) at 30 µM (HCT116, HT29 and H1299; 10 µM for 48 h (SRB), 30 µM for 72 h (MTT), HCT116, HT29, H1299): significantly inhibited; Number of G0/G1-phase cells (HT-29 cells; HT29, 24 h treatment): increased in a concentration-dependent manner; Cell cycle effect (HT-29 cells; HT-29, 24 h): arrested cancer cells at the G0/G1 phase; IC50 (H1299 cells [5]): 23.6 µM; IC50 (HCT116 cells [6]): 13.3 µM; IC50 (HT29 cells [7]): 13.3 µM |

Now from value to compound, other results behind:

| inhibition at 10 µM (TAOK1) [%] | inhibition at 10 µM (MAP4K5) [%] | Number of kinases inhibited in panel [1] | IC50 (TAOK1) [µM] | Inhibition percentage at 10 μM TAOK1 (TAOK1) | IC50 (MAP4K5) [µM] | Inhibition percentage at 10 μM MAP4K5 (MAP4K5) | Structure (SMILES) | other results |
| --- | --- | --- | --- | --- | --- | --- | --- | --- |
| 1 | 44 | – | – | – | – | – | O=C(Nc1nc2ccccc2[nH]1)c1ccc(C(=O)Nc2nc3ccccc3[nH]2)cc1 [Compound 5] | – |
| 12 | 41 | – | – | – | – | – | CC(=O)Nc1ccc(Nc2nc(Cl)nc(Nc3ccc(NC(C)=O)cc3)n2)cc1 [Compound 6] | – |
| 4 | 47 | – | – | – | – | – | CC1=C(C(=O)Nc2cccc3c2C(=O)NC3=O)CC(C(=O)Nc2cccc3c2C(=O)NC3=O)=C(C)N1 [Compound 7] | – |
